Source: US10316371B2, “Screening methods for identifying specific Staphylococcus aureus inhibitors” (TRANA DISCOVERY, INC., priority 2011, dated 2019)
Converted amounts (≈) assume the structure as drawn. Read-outs that look alike come from different tables or passages of the source.

Key:
Type in all cases: cell-based
[1] = system: Staphylococcus aureus strains (ATCC 33591, USA300, 158, 22, 2, ATCC 29213, 182); assay: MIC screening of lead compounds against S. aureus strains; conditions: including vancomycin and methicillin resistant strains
Excerpt: A series of lead compounds identified in the in vitro screening were subjected to in vivo screening, to determine their effectiveness against S. aureus. The strains included Staphylococcus aureus, Methicillin Resistant (ATCC 33591), Methicillin-Resistant Staphylococcus aureus USA300, Staphylococcus aureus 158, Staphylococcus aureus 22, Staphylococcus aureus 2, Staphylococcus aureus (ATCC 29213), and Staphylococcus aureus 182.

E. coli ESBL 4 = assay: MIC; conditions: Escherichia coli, ESBL4; E. coli ESBL 4; read-out: MIC
K. pneumoniae UMM = assay: MIC; conditions: Klebsiella pneumoniae; K. pneumoniae UMM; read-out: MIC
S. aureus strain 29213 = assay: Time-kill experiments; conditions: for time-kill activity (cidal / static): 8 hrs; for reduction of bacterial counts / reduction of bacterial counts (killing): by 8 hours
Experimental: (§1) Two compounds (#880 and #169) were tested in time-kill assays against S. aureus strain 29213. These compounds were then used to attempt to select for resistant variants by passaging at sub-MIC concentrations for 20 passages.
Twenty mL of MH-II media warmed to 37° C. was seeded with log-phase growth S. aureus strain 29213 at 1×10^6 cfu/mL in 50 mL erlenmeyer shake-flasks. Compound was added at 2× and 4× the MIC value. Negative controls (no drug) and positive drug controls (vancomycin at 2× and 4× the MIC) were included in the experiment. Flasks were shaken at 200 rpm and 37° C. Samples were taken at the times indicated (0, 2, 4, 6, 8 and 24 hrs post inoculation) and bacterial loads were quantified by limiting dilution assay.

S. aureus ATCC 29213 = assay: Resistance passaging experiment; conditions: Staphylococcus aureus
Experimental: as §1
The selected strain for this experiment was S. aureus ATCC 29213. A frozen glycerol stock was streaked onto MH-II agar and grown overnight at 37° C. The next day, 3-5 colonies were picked and grown in 3 mL of MH-II broth at 37° C. with 200 rpm shaking for approximately 4 hours. A 2-fold microdilution (in round-bottom, 96-well plates) was made for each compound being tested. CLSI guidelines for broth microdilution were followed. Using the bacteria grown from the overnight colonies, each microdilution was inoculated at a final concentration of 5×10^5 colony forming units (CFU)/mL. The microdilutions were incubated at 37° C. for 16 to 20 hours, after which the minimal inhibitory concentration (MIC) of each was read visually. The MIC is defined as the lowest concentration of compound resulting in no visible bacterial growth. This activity is recorded as the MIC at Passage 0. The contents of the well in the next dilution lower in concentration than the MIC (i.e., ½ the MIC) was mixed with a micropipette and 50 μL was transferred to 3 mL of fresh MH-II broth. This was grown at 37° C. with 200 rpm shaking for approximately 4 hours, at which time the sample was turbid. A 1 mL aliquot of this sample was added to a cryovial containing 300 μL of glycerol. This was marked as passage 1, vortexed, than placed in a −80° C. freezer for storage. The rest of the culture was adjusted to a bacterial concentration of 1×10^6cfu/mL (OD600 of 0.004), which was then used to inoculate a microdilution of the same compound (final bacterial concentration of 5×10^5 cfu/mL). This was incubated at 37° C. for 16 to 20 hours. After that time the MIC was once again read and recorded as the MIC at Passage 1. This process was repeated through 20 passages. Ciprofloxacin was included as a control and an untreated sample was also passaged 20 times as a negative control.

[2] = ATCC29213, read-out: MIC in S. aureus 29213, Passage 14, passaged at sub-MIC
[3] = ATCC29213, read-out: MIC in S. aureus 29213, Passage 15, passaged at sub-MIC
[4] = ATCC29213, read-out: MIC in S. aureus 29213, Passage 16, passaged at sub-MIC
[5] = ATCC29213, read-out: MIC in S. aureus 29213, Passage 17, passaged at sub-MIC
[6] = ATCC29213, read-out: MIC in S. aureus 29213, Passage 18, passaged at sub-MIC
[7] = ATCC29213, read-out: MIC in S. aureus 29213, Passage 19, passaged at sub-MIC
[8] = ATCC29213, read-out: MIC in S. aureus 29213, Passage 20, passaged at sub-MIC
[9] = ATCC29213, read-out: MIC in S. aureus 29213, second Passage 20 line of Table 4 (untreated culture passaged 20 times)

| Compound | activity on types of S. aureus [1] | MIC (E. coli ESBL 4) [µg/mL] | MIC (K. pneumoniae UMM) [µg/mL] | reduction of bacterial counts (S. aureus strain 29213; 2× the MIC) [log10] | time-kill activity (cidal / static) (S. aureus strain 29213; 4× the MIC) | reduction of bacterial counts (killing) (S. aureus strain 29213; 4× the MIC) [log10] | MIC (S. aureus ATCC 29213; [2]) [µg/mL] | MIC (S. aureus ATCC 29213; [3]) [µg/mL] | MIC (S. aureus ATCC 29213; [4]) [µg/mL] | MIC (S. aureus ATCC 29213; [5]) [µg/mL] | MIC (S. aureus ATCC 29213; [6]) [µg/mL] | MIC (S. aureus ATCC 29213; [7]) [µg/mL] | MIC (S. aureus ATCC 29213; [8]) [µg/mL] | MIC (S. aureus ATCC 29213; [9]) [µg/mL] | further results |
| --- | --- | --- | --- | --- | --- | --- | --- | --- | --- | --- | --- | --- | --- | --- | --- |
| Cc1ccc2nc(-c3ccc(NC(=O)CN4CCN(CCO)CC4)cc3)sc2c1 [Compound #169, 2-[4-(2-hydroxyethyl)-1-piperazinyl]-N-[4-(6-methyl-1,3-benzothiazol-2-yl)phenyl]acetamide] | showed activity on all types of S. aureus | > 128 | > 128 | 1 | static activity | 1 | 32 (≈ 77.9 µM) | 32 (≈ 77.9 µM) | 32 (≈ 77.9 µM) | 32 (≈ 77.9 µM) | 32 (≈ 77.9 µM) | 32 (≈ 77.9 µM) | 32 (≈ 77.9 µM) | 32 (≈ 77.9 µM) | time-kill activity (cidal / static) (S. aureus strain 29213; 2× the MIC): static activity; time-kill result by 24 hrs post treatment (S. aureus strain 29213; 2× the MIC, 24 hrs): regrowth of bacteria; MIC (S. aureus ATCC 29213; ATCC29213, read-out: MIC in S. aureus 29213, Passage 4, passaged at sub-MIC): 32 µg/mL (≈ 77.9 µM) |
| Brc1ccc(-c2nc(N3CCNCC3)c3ccccc3n2)cc1 [Compound #880, 2-(4-bromophenyl)-4-(1-piperazinyl)-quinazoline] | showed activity on all types of S. aureus | 64 (≈ 173 µM) | > 128 | 2.5 | rapidly cidal | > 3 | 16 (≈ 43.3 µM) | 16 (≈ 43.3 µM) | 16 (≈ 43.3 µM) | 16 (≈ 43.3 µM) | 16 (≈ 43.3 µM) | 32 (≈ 86.7 µM) | 32 (≈ 86.7 µM) | 16 (≈ 43.3 µM) | bacterial counts by 24 hrs post treatment (S. aureus strain 29213; 4× the MIC, 24 hrs): below detectable levels; MIC (S. aureus ATCC 29213; ATCC29213, read-out: MIC in S. aureus 29213, Passage 8, passaged at sub-MIC): 16 µg/mL (≈ 43.3 µM); MIC (S. aureus ATCC 29213; ATCC29213, read-out: MIC in S. aureus 29213, Passage 10, passaged at sub-MIC): 16 µg/mL (≈ 43.3 µM); MIC (S. aureus ATCC 29213; ATCC29213, read-out: MIC in S. aureus 29213, Passage 11, passaged at sub-MIC): 16 µg/mL (≈ 43.3 µM); MIC (S. aureus ATCC 29213; ATCC29213, read-out: MIC in S. aureus 29213, Passage 12, passaged at sub-MIC): 16 µg/mL (≈ 43.3 µM); MIC (S. aureus ATCC 29213; ATCC29213, read-out: MIC in S. aureus 29213, Passage 13, passaged at sub-MIC): 16 µg/mL (≈ 43.3 µM) |
